# According to US12599599B2, “Anti-inflammatory, anti-cancer, and anti-angiogenic compounds, pharmaceutical compositions, and methods of making and using thereof” (MEDICON PHARMACEUTICALS, INC., priority 2017, dated 2026):
# Assays:
# [1] = system: SKOV-3 human ovarian cancer cells; test: Acridine orange staining by flow cytometry (autophagy); assay type: cell-based; conditions: after treatment; 4% before
# Procedure: FIGS. 12A-12C and FIGS. 13A-13C illustrate key findings related to the mechanism of action of compound 5 against ovarian cancer. The studies shown here were performed in SKOV-3 human ovarian cancer cells. FIG. 12A: Left: Compound 5 increases the percentage of cells with acridine orange staining determined by flow cytometry (4% 4→38% after treatment with compound 5) and indicating the induction of autophagy. Right: Electron micrographs show morphological features of cells undergoing autophagy. Yellow arrowheads: vacuoles; white arrowheads: autophagosomes. […] N: nucleus; ER: endoplasmic reticulum with visible ribosomes. The left micrograph shown normal ER (circled) in a vehicle-treated cell. […] The latter finding is diagnostic of ER stress. Magnification: 6,800×. FIG. 12C: Compound 5 suppresses STAT3, mTOR and JNK activation by phosphorylation, as well as the levels of COT.
# [2] = system: SKOV-3 human ovarian cancer cell xenografts; test: Intraperitoneal luciferase-expressing SKOV-3 tumors in nude mice; assay type: in vivo; conditions: 15 mg/kg ip once a day, six days a week
# Procedure: The ability of compound 5 to inhibit the growth of human ovarian cancer cell xenografts in nude mice was determined. A mouse model that recapitulates the features of peritoneal spread was used, the peritoneal spread being the clinically most relevant presentation of ovarian cancer. In this model, luciferase-expressing ovarian cancer cells are injected intraperitoneally (ip) into nude mice. Multiple tumors grow in the peritoneal cavity and their growth is monitored periodically using the IVIS Lumina II imaging system following the intraperitoneal administration of luciferin, the substrate of luciferase. The luciferase gene was transfected into SKOV-3 cells, and 2×10^6 cells were intraperitoneally injected into mice. Two weeks later, when tumors had grown, mice treatment was started by intraperitoneally injecting compound 5, 15 mg/kg or vehicle (corn oil), once a day, six days a week (n=10 mice/group).
# When the tumor volume of the compound 5 treated mice at the end of the study is compared to that of the day when treatment started (baseline), compound 5 caused 53% tumor regression, with 3 out of 10 mice having barely detectable tumors by imaging and no tumors visible at necropsy.
# (§1) Compound 6 was also efficacious against chemotherapy-resistant ovarian cancer. […] The effect of compound 6 in cisplatin resistant (A2780cis) and doxorubicin (Adriamycin) resistant (A2780ADR) tumors was studied. Briefly, each of these cell lines was subcutaneously inoculated into athymic nude mice and when the tumor size reached 100-200 mm^3, compound 6 150 mg/kg/day or its vehicle were given i.p. After 11 days of treatment, for the cisplatin-resistant tumors the tumor volume of the vehicle group was 2388±127 mm^3 and for compound 6 group 1032±108 mm^3 (mean±SEM; P<0.02); while for the doxorubicin-resistant tumors these values were: vehicle group=1369±337 mm^3 and compound 6 group=396±182 mm^3 (P<0.02).
# [3] = system: Ras palmitoylation in A2780 and A2780cis ovarian cancer cells; test: Ras palmitoylation (resin capture, immunoblot); assay type: cell-based, human
# Procedure: FIGS. 18A-18B illustrate the effect of compounds 5 and 6 on K-Ras. FIG. 18A: Compound 6 suppressed of K-Ras activation. Cells with mutant K-Ras were treated with compound 6 1.5×IC50 for the respective time periods. K-Ras activity was determined by Ras pull-down (Thermo Scientific; following vendor instructions). K-Ras activation is suppressed 37% at 1 hr and 88% at 2 hrs compared to respective controls. FIG. 18B: Compound 5 suppressed the palmitoylation of Ras in A2780 and A2780cis (resistant to cisplatin) ovarian cancer cells. Palmitoylation is detected by removing S-palmitate groups from proteins, creating new free thiols (where the palmitic acid group used to be) and capturing the previously S-palmitoylated proteins on a resin, using a commercial kit (Badrilla, Leeds, UK). Ras was detected in the eluate by immunoblot.
# This effect may be particularly useful in types of cancer characterized by K-Ras mutation such as, for example, pancreatic, lung and ovarian cancer. FIG. 18A illustrates the inhibition of K-Ras activation by compound 6. […] This property of compound 5 is not shared for example by compound 6 or phosphosulindac.
# A2780 xenografts = test: Subcutaneous xenografts in nude mice, platinum sensitive; assay type: in vivo; conditions: compound 5 15 mg/kg/day six days a week ip; cis-platinum 5.5 mg/kg one time a week ip
# Procedure: (§2) To determine whether compound 5 is efficacious against chemotherapy-resistant ovarian cancer, three pairs of sensitive and resistant human ovarian cancer cell lines were grown as subcutaneous xenografts in nude mice and treated as summarized in FIG. 10. These cell lines were: A2780, sensitive to both cis-platinum and Adriamycin (doxorubicin); A2780cis, resistant to cis-platinum; A2780ADR, resistant to Adriamycin: HEY, sensitive to Taxol; HEY-T30, resistant to Taxol. The treatments administered were: vehicle control; compound 5, 15 mg/kg/day six days a week, ip; cis-platinum 5.5 mg/kg, one time a week ip; Adriamycin 3 mg/kg twice a week ip; and Taxol 20 mg/kg twice a week ip.
# VEGF-A = test: Secreted VEGF in culture medium by ELISA; assay type: cell-based, human
# Procedure: (§3) The effect of compounds 2, 5, and 6 on VEGF production was examined. For example, SKOV-3 ovarian cancer cells grown in culture were treated with compound 5 1×IC50 for up to 24 h. Secreted VEGF was assayed in the culture medium by ELISA (R&D Systems). […] For example, at 24 h, the reduction of secreted VEGF-A over the corresponding controls was: OVCAR3=100%, A2780=86%, A2780cis=100%, and A2780ADR=100%. Compound 5 suppressed VEGF-B by 90-92% compared to control. The anti-VEFG effect of Compound 5 is as strong in the drug-resistant as in the drug-sensitive cell lines.
# VEGF-B = test: Secreted VEGF in culture medium by ELISA; assay type: cell-based, human
# Procedure: as §3
# A2780cis xenografts = test: Subcutaneous xenografts in nude mice, cisplatin resistant; assay type: in vivo; conditions: compound 5 15 mg/kg/day six days a week ip; cis-platinum 5.5 mg/kg one time a week ip
# Procedure: as §1, §2
# SKOV-3 ovarian cancer = test: 24 hr growth inhibition of cell line; assay type: cell-based; conditions: Homo sapiens, SK-OV-3, 24 h
# Procedure: The therapeutic efficacy of compounds 2, 5, and 6 was assessed in human and murine cell lines of varied tissue origin, and their 24 hr 50% inhibitory concentration was determined by following standard methodologies. Typical results are shown in the Table 5, indicating a broad anticancer effect.
# Ovarian cancer cells were studied in greater detail using the following ovarian cancer cell lines: SKOV-3, OVCAR3, A2780 (and two cell lines derived from it, A2870cis that is resistant to cisplatin, and A2870ADR that is resistant to doxorubicin (Adriamycin)), and HEY (sensitive to paclitaxel (Taxol), and its derivative HEY-T30 that is Taxol-resistant). […]
# [4] = system: chicken embryo chorioallantoic membrane; test: Chicken embryo chorioallantoic membrane assay; assay type: in vivo
smiles,measurement,setting,value
CCN(CC)CCCCNC(=O)c1ccccc1SC/C=C(\C)CC/C=C(\C)CCC=C(C)C [Compound 5],percentage of cells with acridine orange staining,[1],38%
same,reduction of tumor volume compared to control,[2]; day 24,153%
same,mice having barely detectable tumors by imaging and no tumors visible at necropsy,[2]; end of study,3 out of 10
same,tumor regression vs baseline (day treatment started),[2]; end of study,53%
same,suppression of palmitoylation of Ras,[3],suppressed
same,growth of platinum-sensitive xenografts,A2780 xenografts,suppressed the growth
same,reduction of secreted VEGF-A over controls,"VEGF-A; A2780, 24 h",86%
same,reduction of secreted VEGF-A over controls,"VEGF-A; A2780ADR, 24 h",100%
same,reduction of secreted VEGF-A over controls,"VEGF-A; A2780cis, 24 h",100%
same,reduction of secreted VEGF-A over controls,"VEGF-A; OVCAR3, 24 h",100%
same,suppression of secreted VEGF-A levels,"VEGF-A; SKOV-3, 1×IC50, 6 hr",80%
same,suppression of secreted VEGF-A levels,"VEGF-A; SKOV-3, 1×IC50, 24 hr",100%
same,suppression of VEGF-B compared to control,VEGF-B,90-92%
same,growth of platinum-resistant xenografts,A2780cis xenografts,as efficacious as in the platinum sensitive xenografts
same,IC50,SKOV-3 ovarian cancer,9 µM
same,new vessels after treatment,"[4]; control 58±4.9 (compound 5), 42.6±8.2 (compound 6)",46±2.1
same,reduction of formation of new vessels,[4]; in vivo,21%
